The values below are quoted from earlier work in patent US10426749B2, “Safflower oil emulsion as dietary supplement and preparation thereof” (INNOVITAMIN ORGANICS, LLC, priority 2011, dated 2019).

In this data set the test system is post-menopausal, obese women with type 2 diabetes. The note with it: 8 grams daily for 16 weeks.

In the case of conjugated linoleic acid [CLA], the “metabolic parameters (trunk fat mass, HDL cholesterol, fasting glucose, insulin sensitivity, C-reactive protein)” value is on record as “did not significantly alter”.
